Experimental data published in US6414014B1 (Bristol-Myers Squibb Company, priority 1992, dated 2002).

Assays:
[1] = 6-hour IV infusion every 21 days without premedication; cited from earlier work
[2] = Peripheral neuropathy symptoms (PNS) in the randomized taxol study; type: in vivo, patients
Procedure: A nurse remained with each patient for the first hour of each infusion. Temperature, pulse, blood pressure, and respiration were taken preinfusion, every 15 minutes for the first hour, every thirty minutes for the next 2 hours, hourly for the next 4 hours, and every other hour until the end of the infusion (for patients receiving the 24-hour infusion). Other observations were also documents, such as rash/redness of the skin, hives, vomiting, nausea, and any other symptoms including neuropathy and skin rashes.
80 of 157 patients (51%) experienced some sign of symptom of peripheral neurotoxicity. The incidents in the high dose arms was 66% (49/74), while the incidents in the low dose arms was 37% (31/83). The incidents of peripheral neuropathy in the long-term (24-hour) infusion was 48% (43/89), while the incidents of peripheral neuropathy in the short-term infusion arms was […] (37/68).

[3] = Hypersensitivity reactions (HSR) in the randomized taxol study; type: in vivo, patients
Procedure: Patients with platinum pretreated recurrent ovarian cancer were randomized to a 135 or 175 mg/m^2 dose arm, administered as a 3-hour or 24-hour IV infusion, which was repeated every three weeks. Responses were evaluated every two cycles.

[4] = arm 135/3 (mg/m^2/infusion hours), n = 39
[5] = arm 135/24 (mg/m^2/infusion hours), n = 44
[6] = arm 175/3 (mg/m^2/infusion hours), n = 29
[7] = arm 175/4 (mg/m^2/infusion hours), n = 45
[8] = TOTAL, all four arms, 528 courses analyzed
[9] = arm 135/3 (mg/m^2/infusion hours), 132 courses analyzed
[10] = arm 135/24 (mg/m^2/infusion hours), 141 courses analyzed
[11] = arm 175/3 (mg/m^2/infusion hours), 92 courses analyzed
[12] = arm 175/4 (mg/m^2/infusion hours), 163 courses analyzed

Compound: CC(=O)O[C@H]1C(=O)[C@@]2(C)[C@H]([C@H](OC(=O)c3ccccc3)[C@]3(O)C[C@H](OC(=O)[C@H](O)[C@@H](NC(=O)c4ccccc4)c4ccccc4)C(C)=C1C3(C)C)[C@]1(OC(C)=O)CO[C@@H]1C[C@@H]2O [taxol]
- maximum tolerated dose [1]: 275 mg/m^2
- patients asymptomatic prior to taxol who developed some peripheral neuropathy symptoms ([2]; 44 of 118 patients): 37%
- patients with some sign or symptom of peripheral neurotoxicity ([2]; 80 of 157, all arms): 51%
- First Occurence/Worsening of PNS By Cumulative Dose of Taxol: 201-400 mg/m^2 ([2]; TOTAL, all four arms, n = 157): 22 n (%)
- First Occurence/Worsening of PNS By Cumulative Dose of Taxol: 401-600 mg/m^2 ([2]; TOTAL, all four arms, n = 157): 4 n (%)
- First Occurence/Worsening of PNS By Cumulative Dose of Taxol: >600 mg/m^2 ([2]; TOTAL, all four arms, n = 157): 5 n (%)
- First Occurence/Worsening of PNS By Cumulative Dose of Taxol: ≦200 mg/m^2 ([2]; TOTAL, all four arms, n = 157): 23 n (%)
- Number of Patients Who Developed or Worsened PNS ([2]; TOTAL, all four arms, n = 157): 54 (34) n (%)
- First Occurence/Worsening of PNS By Courses: Course 1 [2, 4]: 4 n (%)
- First Occurence/Worsening of PNS By Courses: Course 3 [2, 4]: 1 n (%)
- First Occurence/Worsening of PNS By Courses: Course 4 and more [2, 4]: 3 n (%)
- First Occurence/Worsening of PNS By Cumulative Dose of Taxol: 201-400 mg/m^2 [2, 4]: 1 n (%)
- First Occurence/Worsening of PNS By Cumulative Dose of Taxol: 401-600 mg/m^2 [2, 4]: 2 n (%)
- First Occurence/Worsening of PNS By Cumulative Dose of Taxol: >600 mg/m^2 [2, 4]: 2 n (%)
- First Occurence/Worsening of PNS By Cumulative Dose of Taxol: ≦200 mg/m^2 [2, 4]: 4 n (%)
- Number of Patients Who Developed or Worsened PNS [2, 4]: 8 (21) n (%)
- First Occurence/Worsening of PNS By Courses: Course 1 [2, 5]: 3 n (%)
- First Occurence/Worsening of PNS By Courses: Course 2 [2, 5]: 2 n (%)
- First Occurence/Worsening of PNS By Courses: Course 3 [2, 5]: 1 n (%)
- First Occurence/Worsening of PNS By Courses: Course 4 and more [2, 5]: 1 n (%)
- First Occurence/Worsening of PNS By Cumulative Dose of Taxol: 201-400 mg/m^2 [2, 5]: 3 n (%)
- First Occurence/Worsening of PNS By Cumulative Dose of Taxol: 401-600 mg/m^2 [2, 5]: 1 n (%)
- First Occurence/Worsening of PNS By Cumulative Dose of Taxol: >600 mg/m^2 [2, 5]: 1 n (%)
- First Occurence/Worsening of PNS By Cumulative Dose of Taxol: ≦200 mg/m^2 [2, 5]: 3 n (%)
- Number of Patients Who Developed or Worsened PNS [2, 5]: 7 (16) n (%)
- First Occurence/Worsening of PNS By Courses: Course 1 [2, 6]: 7 n (%)
- First Occurence/Worsening of PNS By Courses: Course 2 [2, 6]: 9 n (%)
- First Occurence/Worsening of PNS By Courses: Course 3 [2, 6]: 1 n (%)
- First Occurence/Worsening of PNS By Courses: Course 4 and more [2, 6]: 1 n (%)
- First Occurence/Worsening of PNS By Cumulative Dose of Taxol: 201-400 mg/m^2 [2, 6]: 9 n (%)
- First Occurence/Worsening of PNS By Cumulative Dose of Taxol: 401-600 mg/m^2 [2, 6]: 1 n (%)
- First Occurence/Worsening of PNS By Cumulative Dose of Taxol: >600 mg/m^2 [2, 6]: 1 n (%)
- First Occurence/Worsening of PNS By Cumulative Dose of Taxol: ≦200 mg/m^2 [2, 6]: 7 n (%)
- Number of Patients Who Developed or Worsened PNS [2, 6]: 18 (62) n (%)
- First Occurence/Worsening of PNS By Courses: Course 1 [2, 7]: 9 n (%)
- First Occurence/Worsening of PNS By Courses: Course 2 [2, 7]: 8 n (%)
- First Occurence/Worsening of PNS By Courses: Course 3 [2, 7]: 1 n (%)
- First Occurence/Worsening of PNS By Courses: Course 4 and more [2, 7]: 2 n (%)
- First Occurence/Worsening of PNS By Cumulative Dose of Taxol: 201-400 mg/m^2 [2, 7]: 8 n (%)
- First Occurence/Worsening of PNS By Cumulative Dose of Taxol: 401-600 mg/m^2 [2, 7]: 2 n (%)
- First Occurence/Worsening of PNS By Cumulative Dose of Taxol: >600 mg/m^2 [2, 7]: 1 n (%)
- First Occurence/Worsening of PNS By Cumulative Dose of Taxol: ≦200 mg/m^2 [2, 7]: 9 n (%)
- Number of Patients Who Developed or Worsened PNS [2, 7]: 20 (44) n (%)
- incidence of peripheral neurotoxicity ([2]; high dose arms, 49/74): 66%
- peripheral neuropathy symptoms (PNS), about 135 mg/m^2 rather than about 175 mg/m^2 ([2]; in vivo): reduced
- incidence of peripheral neuropathy ([2]; long-term (24-hour) infusion, 43/89): 48%
- incidence of peripheral neurotoxicity ([2]; low dose arms, 31/83): 37%
- incidence of peripheral neuropathy ([2]; short-term infusion arms, 37/68): 50%
- hypersensitivity reactions which required acute therapeutic intervention ([3]; 2 of 157 patients): 1%
- severe hypersensitivity reaction in one patient ([3]; 24-hour arm, course 2 at dose reduced by 20%, less than 1 ml infused): tachychardia and shortness of breath
- patients exhibiting some type of hypersensitivity reaction ([3]; 57/157, all arms): 35%
- Patients reporting a HSR ([3]; TOTAL, all four arms, 157 patients analyzed): 57 (36) n (%)
- Courses with a reported HSR [3, 8]: 136 (26) n (%)
- Type of HSR Per Course: Arrhytheria [3, 8]: 1 n (%)
- Type of HSR Per Course: Chest pain [3, 8]: 1 n (%)
- Type of HSR Per Course: Dyspriea [3, 8]: 5 n (%)
- Type of HSR Per Course: Ederma face [3, 8]: 2 n (%)
- Type of HSR Per Course: Eye disorder [3, 8]: 2 n (%)
- Type of HSR Per Course: Flushing [3, 8]: 103 n (%)
- Type of HSR Per Course: Headache [3, 8]: 1 n (%)
- Type of HSR Per Course: Hypertension [3, 8]: 1 n (%)
- Type of HSR Per Course: Hypotension [3, 8]: 13 n (%)
- Type of HSR Per Course: Nausea/Vomiting [3, 8]: 1 n (%)
- Type of HSR Per Course: Pruritis [3, 8]: 2 n (%)
- Type of HSR Per Course: Rash [3, 8]: 21 n (%)
- Type of HSR Per Course: Tachychardia [3, 8]: 1 n (%)
- Patients reporting a HSR ([3]; arm 135/3 (mg/m^2/infusion hours), 39 patients analyzed): 11 (28) n (%)
- Courses with a reported HSR [3, 9]: 23 (17) n (%)
- Type of HSR Per Course: Dyspriea [3, 9]: 2 n (%)
- Type of HSR Per Course: Eye disorder [3, 9]: 2 n (%)
- Type of HSR Per Course: Flushing [3, 9]: 15 n (%)
- Type of HSR Per Course: Hypotension [3, 9]: 1 n (%)
- Type of HSR Per Course: Pruritis [3, 9]: 2 n (%)
- Type of HSR Per Course: Rash [3, 9]: 6 n (%)
- Patients reporting a HSR ([3]; arm 135/24 (mg/m^2/infusion hours), 44 patients analyzed): 18 (41) n (%)
- Courses with a reported HSR [3, 10]: 44 (31) n (%)
- Type of HSR Per Course: Chest pain [3, 10]: 1 n (%)
- Type of HSR Per Course: Dyspriea [3, 10]: 3 n (%)
- Type of HSR Per Course: Flushing [3, 10]: 40 n (%)
- Type of HSR Per Course: Headache [3, 10]: 1 n (%)
- Type of HSR Per Course: Hypotension [3, 10]: 1 n (%)
- Type of HSR Per Course: Nausea/Vomiting [3, 10]: 1 n (%)
- Type of HSR Per Course: Rash [3, 10]: 6 n (%)
- Type of HSR Per Course: Tachychardia [3, 10]: 1 n (%)
- Patients reporting a HSR ([3]; arm 175/3 (mg/m^2/infusion hours), 29 patients analyzed): 12 (41) n (%)
- Courses with a reported HSR [3, 11]: 23 (25) n (%)
- Type of HSR Per Course: Ederma face [3, 11]: 1 n (%)
- Type of HSR Per Course: Flushing [3, 11]: 16 n (%)
- Type of HSR Per Course: Hypotension [3, 11]: 1 n (%)
- Type of HSR Per Course: Rash [3, 11]: 6 n (%)
- Patients reporting a HSR ([3]; arm 175/4 (mg/m^2/infusion hours), 45 patients analyzed): 6 (36) n (%)
- Courses with a reported HSR [3, 12]: 46 (28) n (%)
- Type of HSR Per Course: Arrhytheria [3, 12]: 1 n (%)
- Type of HSR Per Course: Ederma face [3, 12]: 1 n (%)
- Type of HSR Per Course: Flushing [3, 12]: 32 n (%)
- Type of HSR Per Course: Hypertension [3, 12]: 1 n (%)
- Type of HSR Per Course: Hypotension [3, 12]: 10 n (%)
- Type of HSR Per Course: Rash [3, 12]: 3 n (%)
